# Entries after “also recorded” stand apart in the source; their conditions may differ. Where two headings read alike, the source gives them in different places.
# What was measured:
# [1] = test system: coupled thioredoxin (TX)/thioredoxin reductase (TXR)/NADPH system; assay type: biochemical, bovine
# Experimental: (§1) Biochemistry 21:6628-6633 (1982).
# (§2) Data was then collected and plotted in Microsoft Excel. Error calculations, and graphical representations were performed in Microsoft Excel and Kaleidograph (ver. 3.5). Nonlinear data was graphically rendered using Kaleidograph. ANOVA and other statistical analyses were performed using SAS (ver. 8.2). Unless otherwise noted, significance level was set at 0.05, and error bars represent actual experimental standard deviation.
# Table5, below, illustrates that various Formula (I) compounds (i.e., disulfide-containing compounds) of the present invention can serve as alternate substrate inhibitors for the coupled thioredoxin (TX)/thioredoxin reductase (TXR)/NADPH system as measured by the oxidation of NADPH. In Table5, the Formula (I) compounds were utilized at a concentration of 0.5 mM.
# [2] = molecular target: T1, glutathione reductase (GR) (Homo sapiens, UniProt P00390); experiment: NADPH oxidation by glutathione reductase, without or with GSH; assay type: biochemical
# T1 sequence (P00390 44-522): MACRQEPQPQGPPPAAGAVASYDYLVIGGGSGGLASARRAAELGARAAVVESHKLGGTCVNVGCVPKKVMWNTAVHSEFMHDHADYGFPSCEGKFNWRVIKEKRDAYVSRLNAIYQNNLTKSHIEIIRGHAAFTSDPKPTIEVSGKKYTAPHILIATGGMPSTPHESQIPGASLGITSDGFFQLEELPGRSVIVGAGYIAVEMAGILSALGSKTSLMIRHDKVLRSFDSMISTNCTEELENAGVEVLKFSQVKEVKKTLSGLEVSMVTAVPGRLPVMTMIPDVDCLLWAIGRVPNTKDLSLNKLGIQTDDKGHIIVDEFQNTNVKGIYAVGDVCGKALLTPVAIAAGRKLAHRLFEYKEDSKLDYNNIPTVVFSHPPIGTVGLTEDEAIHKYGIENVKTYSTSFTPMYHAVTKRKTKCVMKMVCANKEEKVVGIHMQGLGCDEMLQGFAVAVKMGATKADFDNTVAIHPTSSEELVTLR
# Experimental: (§3) Table 4, below, illustrates that various Formula (I) compounds (i.e., dithiol-containing compounds) may act as alternative substrate inhibitors for the coupled GRX/GSH/GR system as measured by NADPH oxidation. The Formula (I) compound was utilized at a concentration of 0.5 mM.
# [3] = molecular target: T2, thioredoxin reductase (TXR) (Bos taurus, UniProt O62768); experiment: NADPH oxidation by thioredoxin reductase only; assay type: biochemical; conditions: listed as Tavocept™
# T2 sequence (O62768 1-499): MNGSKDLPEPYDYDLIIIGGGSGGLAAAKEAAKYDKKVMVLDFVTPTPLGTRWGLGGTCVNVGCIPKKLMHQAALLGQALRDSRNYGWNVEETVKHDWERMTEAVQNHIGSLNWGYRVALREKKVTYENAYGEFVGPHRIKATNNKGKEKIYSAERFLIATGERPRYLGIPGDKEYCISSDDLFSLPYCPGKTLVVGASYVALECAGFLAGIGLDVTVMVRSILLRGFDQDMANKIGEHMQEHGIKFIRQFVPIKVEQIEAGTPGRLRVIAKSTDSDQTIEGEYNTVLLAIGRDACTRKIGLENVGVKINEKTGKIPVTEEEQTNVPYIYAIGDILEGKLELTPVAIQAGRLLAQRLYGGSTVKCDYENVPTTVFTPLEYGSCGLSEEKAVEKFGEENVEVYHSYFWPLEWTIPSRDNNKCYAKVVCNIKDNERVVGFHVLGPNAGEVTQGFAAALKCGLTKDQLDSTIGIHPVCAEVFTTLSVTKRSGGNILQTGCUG
# Experimental: as §1, §2
# [4] = molecular target: T3, coupled glutaredoxin (GRX)/glutathione (GSH)/glutathione reductase (GR) system (Homo sapiens, UniProt P35754); experiment: NADPH oxidation by coupled GRX/GSH/GR system; assay type: biochemical; conditions: in the presence of reduced glutathione and glutathione reductase
# T3 sequence (P35754 1-106): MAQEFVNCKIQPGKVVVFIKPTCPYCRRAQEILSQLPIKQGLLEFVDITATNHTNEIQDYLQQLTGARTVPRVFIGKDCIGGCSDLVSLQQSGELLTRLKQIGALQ
# Experimental: as §3
# [5] = test system: patients with advanced, Stage IIIB/IV, non-small cell lung carcinoma (NSCLC), including the adenocarcinoma sub-type; experiment: U.S. Phase II NSCLC Clinical Trial (dose-dense docetaxel/cisplatin with or without Tavocept™); assay type: in vivo, human; conditions: Tavocept™ arm vs non-Tavocept™ arm
# Description: As utilized herein, the term “clinical trial” or “trial”, refers to: • (i) the Japan Phase III Clinical Trial disclosed in the present invention which was utilized to show the ability of Tavocept™ (also referred to in the literature as disodium 2,2′-dithio-bis-ethane sulfonate, dimesna, or BNP7787) to prevent and/or reduce peripheral neuropathy induced by paclitaxel/cisplatin combination therapy. The incidence and severity of adverse reactions, time to their onset, etc. and the like, were compared between patients treated with Tavocept™ and those given a placebo using Quality of Life (QOL) questionnaires (i.e., Peripheral Neuropathy Questionnaire (PNQ©) and CIPN-20)) and the National Cancer Institute-Common Toxicity Criteria (NCI-CTC). The effects of Tavocept™ on the Quality of Life (QOL) of patients under anticancer treatment were also evaluated using the QOL questionnaire, EORTC QLQ-C30. Whether or not Tavocept™ would affect the efficacy of paclitaxel/cisplatin combination therapy was also evaluated based on the response rate, aggravation-free survival period, and total survival period. […] Whether or not Tavocept™ would affect the efficacy of the dose-dense docetaxel/cisplatin combination therapy was also evaluated based on the response rate, aggravation-free survival period, and total survival period. […]
# [6] = test system: mammalian thioredoxin reductase (TXR); conditions: cited from earlier work
# [7] = molecular target: T1, glutathione reductase (GR); conditions: cited from earlier work
# brain cancer cells = experiment: Cytotoxicity in brain cancer cells; assay type: cell-based, human; conditions: oxaliplatin and mesna; observable but not statistically significant
# [8] = test system: whole cells (reduction of TX/TXR and GRX substrates); experiment: Whole cell mediated disulfide reduction; assay type: cell-based; conditions: mesna in combination with cisplatin
# [9] = test system: ovarian cancer cell lines; experiment: Cytotoxicity in ovarian cancer cell lines; assay type: cell-based, human; conditions: mesna (100 μM) in combination with oxaliplatin vs oxaliplatin alone controls
# [10] = test system: non-small cell lung carcinoma (NSCLC) cell lines; experiment: Cytotoxicity in NSCLC cell lines; assay type: cell-based, human
SMILES,inhibition of TXR (in words) ([6]; literature studies),inhibition of GR (in words) ([7]; literature studies),further results
NC(CSSCCS(=O)(=O)O)C(=O)O (stereo not drawn) [BNP7766],–,–,substrate activity / NADPH oxidation by TXR in the presence of TX (in words) [1]: substrates
NC(CCSSCCS(=O)(=O)O)C(=O)O (stereo not drawn) [BNP7768],–,–,substrate activity / NADPH oxidation by TXR in the presence of TX (in words) [1]: substrates
N[C@@H](CCC(=O)N[C@@H](CSSCCS(=O)(=O)O)C(=O)NCC(=O)O)C(=O)O [BNP7772],–,–,substrate activity for glutathione reductase (in words) [2]: functions as an alternative substrate inhibitor; substrate activity / NADPH oxidation by TXR in the presence of TX (in words) [1]: substrates
N[C@@H](CSSCCS(=O)(=O)O)C(=O)NCC(=O)O [BNP7776],–,–,substrate activity / NADPH oxidation by TXR in the presence of TX (in words) [1]: substrates
"O=S(=O)([O-])CCSSCCS(=O)(=O)[O-].[Na+].[Na+] [BNP7787, disodium 2,2′-dithio-bis-ethane sulfonate]",–,–,"substrate activity for glutathione reductase (in words) [2]: not a substrate for glutathione reductase; NADPH oxidation / substrate activity with thioredoxin reductase alone, absence of TX (in words) [3]: indistinguishable from background; also recorded: not thioredoxin reductase alone; activity with glutaredoxin (in words) [4]: substrate-like activity; increase in patient (median) survival, adenocarcinoma ([5]; listed as Tavocept): ~6.5 month; increase in patient (median) survival, adenocarcinoma ([5]; listed as Tavocept™): 6.54 month"
CS(=O)(=O)OCCCCOS(C)(=O)=O [busulfan],irreversibly inhibited TXR in a concentration- and time-dependent manner,not GR,–
N.N.O=C([O-])C1(C(=O)[O-])CCC1.[Pt+2] [carboplatin],could not inhibit either TXR or GR,could not inhibit either TXR or GR,–
O=NN(CCCl)C(=O)NCCCl [carmustine],can inhibit both GR and TXR,can inhibit both GR and TXR,–
O=C(O)CCCc1ccc(N(CCCl)CCCl)cc1 [chlorambucil],irreversibly inhibited TXR in a concentration- and time-dependent manner,not GR,–
"N.N.[Cl][Pt][Cl] [cisplatin, cis-diamminedichloroplatinum]",irreversibly inhibited TXR,not GR,–
O=P1(N(CCCl)CCCl)NCCCO1 (stereo not drawn) [cyclophosphamide],irreversibly inhibited TXR in a concentration- and time-dependent manner,not GR,–
O=P1(NCCCl)OCCCN1CCCl (stereo not drawn) [ifosfamide],inhibited TXR,–,–
N[C@@H](Cc1ccc(N(CCCl)CCCl)cc1)C(=O)O [melphalan],irreversibly inhibited TXR in a concentration- and time-dependent manner,not GR,–
"O=S(=O)(O)CCS [mesna, sodium-2-mercaptoethane sulfonate]",–,–,"oxaliplatin cytotoxicity (brain cancer cells): lesser increase in oxaliplatin cytotoxicity; reduction of α-lipoic acid (TX/TXR substrate) or hydroxyethyldisulfide (GRX substrate) by whole cells [8]: enhanced the reduction; cytotoxic effect of oxaliplatin [9]: markedly enhanced the cytotoxic effect; cytotoxic effect of oxaliplatin ([10]; mesna (100 μM) in combination with oxaliplatin vs oxaliplatin alone controls, NSCLC): markedly enhanced the cytotoxic effect; cytotoxic effect of paclitaxel ([10]; mesna (100 μM) in combination with paclitaxel vs paclitaxel alone controls): enhanced the cytotoxic effect"
N.N.O.[Cl][Pt+] [monohydrated complex],irreversibly inhibited TXR,not GR,–
O=C1[O][Pt]2([NH][C@@H]3CCCC[C@H]3[NH]2)[O]C1=O [oxaliplatin],–,–,inhibition of TXR (in words) [6]: irreversibly inhibited TXR; inhibition of GR (in words) [7]: not GR
N.N.[Cl][Pt+2][Cl] [transplatin],irreversibly inhibited TXR,not GR,–
